Where “and” joins values, the source holds several entries; their conditions need not be identical. Equal values may be shown once. Read-outs that look alike come from different tables or passages of the source. Non-standard residues stand in square brackets, D forms with d. Residues, ends and D or L forms follow the SMILES beside them. *: point of attachment. Sta = CC(C)C[C@H](N)[C@@H](O)CC(=O)O; Isovaleryl = CC(C)CC(=O)*
Experiments:
Rlig1-AMP [1] = target: T1, Rlig1-AMP (Homo sapiens, UniProt Q8N999); assay: FRET-based high-throughput screening of inhibitors for Rlig1-AMP; format: biochemical; conditions: for Raw data [w Enyzm]: with enzyme; for Raw data [w/o Enzym]: without enzyme
T1 construct: made in house; host or cells: E. coli BL21 (DE3), pET15b-Rlig1

[2] = system: kinesin-like protein KIFC1 (HSET/KIFC1); parameters: method as in MedChemExpress; conditions: ref MedChemExpress; cited from earlier work
[3] = system: SHSY5Y neuroblastoma cells; parameters: method as in MedChemExpress; conditions: ref MedChemExpress, cited from earlier work
[4] = DMSO; ref MedChemExpress; cited from earlier work
FAAH [5] = system: FAAH; parameters: method as in MedChemExpress; conditions: mouse FAAH; ref MedChemExpress; cited from earlier work
FAAH [6] = system: FAAH; parameters: method as in MedChemExpress; conditions: rat FAAH; ref MedChemExpress; cited from earlier work
FAAH [7] = system: FAAH; parameters: method as in MedChemExpress; conditions: human FAAH; ref MedChemExpress; cited from earlier work
[8] = in DMSO; ref MedChemExpress; cited from earlier work
Rlig1-AMP [9] = target: T1, Rlig1-AMP; assay: Radioactive RNA ligation assay (hit validation, 10 µM test and IC50 determination); format: biochemical
[10] = Cell viability assay of HEK293 cells treated with inhibitors and menadione; format: cell-based, human; conditions: human, HEK293 cells, 30 μM compound, 24 h, no menadione; read-out: cell viability without oxidative stress
HEK293 cells [11] = assay: as above; format: cell-based, human; conditions: inhibitor 24 h, then 40 μM menadione 5 h
HEK293 cells [12] = assay: RNA integrity analysis of HEK293 cells treated with inhibitors and menadione (TapeStation 28S/18S rRNA); format: cell-based, human; conditions: 30 μM compound 24 h; Menadione 0 μM
HEK293 cells [13] = assay: Light-microscopy of inhibitor- and menadione-treated HEK293 cells; format: cell-based, human; conditions: 30 µM compound 24 h, then menadione 5 h
[14] = system: DNA methyltransferases (DNMTs); conditions: cited from earlier work
in vitro = conditions: human
HEK293 cells [15] = assay: Cell viability assay of HEK293 cells treated with inhibitors (CellTiter-Glo)
FLT3 WT = system: FLT3 WT; parameters: method as in MedChemExpress [1][2][3]; conditions: ref MedChemExpress [1][2][3]; cited from earlier work
[16] = system: FLT3 internal tandem duplication (ITD); parameters: method as in MedChemExpress [1][2][3]; conditions: ref MedChemExpress [1][2][3]; cited from earlier work
FLT3 D835Y = system: FLT3 D835Y; parameters: method as in MedChemExpress [1][2][3]; conditions: ref MedChemExpress [1][2][3]; cited from earlier work
PI5P4Kα = system: PI5P4Kα; parameters: method as in MedChemExpress [1]; conditions: ref MedChemExpress [1], cited from earlier work
protein kinase C (PKC) = target: protein kinase C (PKC); parameters: method as in MedChemExpress; conditions: PKC activity; ref MedChemExpress; cited from earlier work
[17] = ref MedChemExpress, cited from earlier work
pepsin = system: pepsin; parameters: method as in MedChemExpress; conditions: ref MedChemExpress, cited from earlier work
proctase = target: proctase; parameters: method as in MedChemExpress; conditions: ref MedChemExpress, cited from earlier work
acid protease = system: acid protease; parameters: method as in MedChemExpress; conditions: ref MedChemExpress, cited from earlier work
[18] = DMSO; ultrasonic/warming; ref MedChemExpress; cited from earlier work
PKC = system: PKC; parameters: method as in MedChemExpress; conditions: ref MedChemExpress, cited from earlier work
[19] = HTS hits, difference of raw data w/o and w enzyme
[20] = HTS hits, normalized value (npi)
[21] = sheet HTS hits, MedChemExpress library
[22] = sheet HTS hits, difference of raw data w/o and w enzyme
[23] = HTS hits, difference of raw data without and with enzyme

T1 sequence (Q8N999 whole entry): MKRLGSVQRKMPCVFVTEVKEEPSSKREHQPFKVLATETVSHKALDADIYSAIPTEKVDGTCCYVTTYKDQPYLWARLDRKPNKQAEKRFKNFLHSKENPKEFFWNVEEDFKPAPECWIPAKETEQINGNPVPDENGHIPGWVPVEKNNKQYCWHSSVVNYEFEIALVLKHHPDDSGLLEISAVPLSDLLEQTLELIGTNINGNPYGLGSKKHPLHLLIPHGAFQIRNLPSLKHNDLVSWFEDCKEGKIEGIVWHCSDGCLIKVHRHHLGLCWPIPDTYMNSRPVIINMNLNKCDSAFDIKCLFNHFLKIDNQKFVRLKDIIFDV

## CCCc1cc(C(=O)N[C@H](Cc2ccc(-c3cccc(OC(F)(F)F)c3)nc2)C(=O)N[C@@H]2CCNC2)sc1C [AZ82]
Rlig1-AMP [1]; [19]
  1-D Distance: 670
Rlig1-AMP [1]; [20]
  1-D Distance.npi: 96.1946
Rlig1-AMP [1]; HTS hits
  Raw data [w Enyzm]: 8773
  Raw data [w/o Enzym]: 9443
[2]
  IC50: 300 nM
  Ki: 43 nM

## COc1nc(-c2cc(C)c(N[C@@H](C)c3ccc(F)cc3)nn2)ccc1-n1cnc(C)c1 [BPN-15606]
Rlig1-AMP [1]; [19]
  1-D Distance: 1474
Rlig1-AMP [1]; [20]
  1-D Distance.npi: 75.4488
Rlig1-AMP [1]; HTS hits
  Raw data [w Enyzm]: 8858
  Raw data [w/o Enzym]: 10332
[3]; read-out: IC50, production of Aβ40
  IC50: 17 nM
[3]; read-out: IC50, production of Aβ42
  IC50: 7 nM
[4]
  solubility: 100 mg/mL and 238.97 mM

## COc1ccc(-c2coc3cc(O)cc(O)c3c2=O)cc1 [Biochanin A]
Rlig1-AMP [1]; [21]
  1-D Distance.npi: 79.7493
Rlig1-AMP [1]; [22]
  1-D Distance: 1536
Rlig1-AMP [1]; sheet HTS hits
  Raw data [w Enyzm]: 8945
  Raw data [w/o Enzym]: 10481
FAAH [5]
  IC50: 1800 nM
FAAH [6]
  IC50: 1400 nM
FAAH [7]
  IC50: 2400 nM
[8]
  solubility, DMSO: DMSO : ≥ 50 mg/mL (175.90 mM)

## Cc1cc(Nc2ccc(NC(=O)c3ccc(Nc4ccnc5ccccc45)cc3)cc2)nc(N)n1 [Compound 1, SGI-1027, reference compound]
Rlig1-AMP [1]; 10 μM compound, read-out: inhibition in HTS
  inhibition at 10 µM: > 70%
Rlig1-AMP [1]; [19]
  1-D Distance: 390
Rlig1-AMP [1]; HTS hits
  Raw data [w Enyzm]: 8456
  Raw data [w/o Enzym]: 8066
Rlig1-AMP [9]; 10 µM compound, 37 °C, 20 min
  inhibition at 10 µM: > 70%
Rlig1-AMP [9]; dose-response urea-PAGE (Fig. S3)
  formation of the RNA-adenylate intermediate: inhibited the formation of the RNA-adenylate intermediate
Rlig1-AMP [9]; radioactive ligation assay, 500 nM Rlig1-AMP, 20 min 37 °C, n = 3, read-out: IC50
  IC50: 3960 nM
[10]
  viability at 24 h, 30 µM: 50%
HEK293 cells [11]
  cell viability under oxidative stress (in words): almost complete loss of viability
HEK293 cells [12]
  28S/18S ratio: > 2
HEK293 cells [13]
  cell morphology: poor adherence and cell shrinkage
[14]; DNMT1, poly(dI-dC) as substrate, ref MedChemExpress, read-out: IC50
  IC50: 12500 nM
[14]; DNMT3A, poly(dI-dC) as substrate, ref MedChemExpress, read-out: IC50
  IC50: 8000 nM
[14]; DNMT3B, poly(dI-dC) as substrate, ref MedChemExpress, read-out: IC50
  IC50: 7500 nM
[14]; read-out: IC50 DNMTs
  IC50: 6000 to 13000 nM
In vitro
  viability at 24 h, 0.234375 µM: 113%
  viability at 24 h, 0.46875 µM: 103%
  viability at 24 h, 0.9375 µM: 104%
  viability at 24 h, 1.875 µM: 101%
  viability at 24 h, 3.75 µM: 91.9%
  viability at 24 h, 7.5 µM: 83.6%
  viability at 24 h, 15 µM: 60.5%
  viability at 24 h, 30 µM: 51%
[4]
  solubility: 27 mg/mL and 58.50 mM
HEK293 cells [15]; HEK293, 24 h, up to 30 μM
  cytotoxicity (in words): moderate cytotoxicity
HEK293 cells [15]; HEK293 cell viability, fit per plate (3 plates, 4 technical replicates each), highest tested concentration 30 µM
  IC50 (Figure 3D: EC50 values for plot; log(inhibitor) vs. response -- Variable slope (four parameters)): 26.0265 µM and 22.3419 µM and 19.1567 µM
HEK293 cells [15]; HEK293 cell viability, fit per plate (3 plates, 4 technical replicates each), log of [µM]
  LogIC50 (log(inhibitor) vs. response -- Variable slope (four parameters)): 1.415 and 1.349 and 1.282
HEK293 cells [15]; Homo sapiens, HEK293, 24 h
  EC50: 23200 nM

## Cc1ccc2c(-c3nc(Nc4cc(CN5C[C@@H](C)N[C@@H](C)C5)cc(C5CC5)c4)ncc3Cl)c[nH]c2c1 [HM43239]
Rlig1-AMP [1]; [22]
  1-D Distance: 834
Rlig1-AMP [1]; sheet HTS hits
  Raw data [w Enyzm]: 6467
  Raw data [w/o Enzym]: 5633
FLT3 WT
  IC50: […]
[16]
  IC50: 1.8 nM
FLT3 D835Y
  IC50: […]
[8]
  solubility, DMSO: DMSO : 125 mg/mL (249.47 mM; Need ultrasonic)

## COc1cc(/C=C(\C#N)C(=O)c2ccc(O)c(O)c2)cc(I)c1O [I-OMe-Tyrphostin AG 538]
Rlig1-AMP [1]; [21]
  1-D Distance.npi: 98.3407
Rlig1-AMP [1]; [22]
  1-D Distance: 515
Rlig1-AMP [1]; sheet HTS hits
  Raw data [w Enyzm]: 1659
  Raw data [w/o Enzym]: 2174
PI5P4Kα; ATP-competitive
  IC50: 1000 nM

## Cl.Cl.O=C1c2c(O)ccc(O)c2C(=O)c2c(NCCNCCO)ccc(NCCNCCO)c21 [Mitoxantrone (dihydrochloride)]
Rlig1-AMP [1]; HTS hits, MedChemExpress library
  1-D Distance.npi: 101.642
Rlig1-AMP [1]; [23]
  1-D Distance: 208
Rlig1-AMP [1]; HTS hits
  Raw data [w Enyzm]: 3238
  Raw data [w/o Enzym]: 3030
Protein kinase C (PKC)
  IC50: 8500 nM

## O=C1c2c(O)ccc(O)c2C(=O)c2c(NCCNCCO)ccc(NCCNCCO)c21 [Mitoxantrone]
Rlig1-AMP [1]; [23]
  1-D Distance: 308
Rlig1-AMP [1]; HTS hits
  Raw data [w Enyzm]: 3553
  Raw data [w/o Enzym]: 3245
Protein kinase C (PKC)
  IC50: 8500 nM
[17]; DMSO
  solubility: 62.5 mg/mL and 140.61 mM
[17]; H2O
  solubility: 100 mg/mL and 224.98 mM

## CC(C)CC(=O)N[C@H](C(=O)N[C@H](C(=O)N[C@@H](CC(C)C)[C@@H](O)CC(=O)N[C@@H](C)C(=O)N[C@@H](CC(C)C)[C@@H](O)CC(=O)O)C(C)C)C(C)C [Pepstatin] (Isovaleryl-VV[Sta]A[Sta]-OH)
Rlig1-AMP [1]; [19]
  1-D Distance: 1754
Rlig1-AMP [1]; HTS hits
  Raw data [w Enyzm]: 8928
  Raw data [w/o Enzym]: 10682
pepsin; substrate casein, read-out: IC50, casein-pepsin
  IC50: 150 nM
pepsin; substrate hemoglobin, read-out: IC50, hemoglobin-pepsin
  IC50: 4.5 nM
proctase; substrate casein, read-out: IC50, casein-proctase
  IC50: 290 nM
proctase; substrate hemoglobin, read-out: IC50, hemoglobin-proctase
  IC50: 6.2 nM
Acid protease; substrate casein, read-out: IC50, casein-acid protease
  IC50: 520 nM
Acid protease; substrate hemoglobin, read-out: IC50, hemoglobin-acid protease
  IC50: 260 nM
[18]
  solubility, DMSO: 125 mg/mL and 182.24 mM

## CN(C)C/C=C/C(=O)Nc1ccc(C(=O)Nc2cccc(Nc3cc(-c4c[nH]c5ccccc45)ncn3)c2)cc1 [THZ-P1-2]
Rlig1-AMP [1]; [21]
  1-D Distance.npi: 94.2865
Rlig1-AMP [1]; [22]
  1-D Distance: 656
Rlig1-AMP [1]; sheet HTS hits
  Raw data [w Enyzm]: 5306
  Raw data [w/o Enzym]: 4650
PI5P4Kα
  IC50: 190 nM

## CCCCC(=O)OCC(=O)[C@]1(O)Cc2c(O)c3c(c(O)c2[C@@H](O[C@H]2C[C@H](NC(=O)C(F)(F)F)[C@H](O)[C@H](C)O2)C1)C(=O)c1c(OC)cccc1C3=O [Valrubicin]
Rlig1-AMP [1]; [19]
  1-D Distance: 1660
Rlig1-AMP [1]; HTS hits
  Raw data [w Enyzm]: 2541
  Raw data [w/o Enzym]: 4201
PKC; PDBu-induced, read-out: IC50, PDBu-induced PKC activation
  IC50: 1250 nM
PKC; TPA-induced, read-out: IC50, TPA-induced PKC activation
  IC50: 850 nM
[18]
  solubility, DMSO: 125 mg/mL and 172.74 mM

Source: publication PMC11747885, “Potent inhibitors of the human RNA ligase Rlig1 highlights its role in RNA integrity maintenance under oxidative cellular stress” (Chemical Science, 2025)
